Test results from PubChem BioAssay (NCI).
Several values for one entry are separate records, joined by “and”; a condition that tells them apart may be missing. Equal entries are not always repeated.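 Step 1: Grow cells in 96-well plates. Step 2: Expose to compound for 48 hours at 5 concentrations. Step 3: Interpolate endpoints linearly; if unreached, use highest concentration. The concentration for 50% growth inhibition is given as GI50. TGI is the concentration that stops growth completely.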

Legend:
Experiment in all cases: NCI tumour cell line growth inhibition, 48 h
786-0 renal = test system: 786-0 renal
SK-MEL-2 melanoma = test system: SK-MEL-2 melanoma
HL-60(TB) leukemia = test system: HL-60(TB) leukemia
LOX IMVI melanoma = test system: LOX IMVI melanoma
DLD-1 colon = test system: DLD-1 colon
SK-MEL-5 melanoma = test system: SK-MEL-5 melanoma
HCT-15 colon = test system: HCT-15 colon
SN12C renal = test system: SN12C renal
DMS 114 small cell lung = test system: DMS 114 small cell lung
BT-549 breast = test system: BT-549 breast

Compound	TGI (786-0 renal) [µM]	TGI (SK-MEL-2 melanoma) [µM]	TGI (HL-60(TB) leukemia) [µM]	TGI (LOX IMVI melanoma)	TGI (DLD-1 colon) [µM]	TGI (SK-MEL-5 melanoma)	TGI (HCT-15 colon) [µM]	TGI (SN12C renal) [µM]	TGI (DMS 114 small cell lung) [µM]	GI50 (786-0 renal) [µM]	GI50 (BT-549 breast) [µM]	TGI (BT-549 breast)	GI50 (LOX IMVI melanoma) [µM]	GI50 (DLD-1 colon) [µM]	GI50 (HL-60(TB) leukemia) [µM]	GI50 (DMS 114 small cell lung) [µM]	GI50 (SK-MEL-5 melanoma) [µM]	GI50 (SN12C renal) [µM]	GI50 (SK-MEL-2 melanoma) [µM]	GI50 (HCT-15 colon) [µM]
CCOC(=O)/C(C#N)=C1/C(O)=C(C(=O)OC)C(C(=O)OC)=C1C(=O)OC	> 100	> 100	> 100	> 100 µM	> 100	> 100 µM	> 100	> 100	–	–	–	–	–	–	–	–	–	–	–	–
O=S(O)CCCSSc1ccccc1	> 100	> 100	–	> 100 µM	> 100	> 100 µM	> 100	> 100	67.6	–	–	–	–	–	–	–	–	–	–	–
Cc1cc2c(c3oc(C4(C)OC4C4OC4C)cc(=O)c13)C(=O)c1c(O)c(C3CC(C)(N(C)C)C(O)C(C)O3)cc(C3CC(N(C)C)C(O)C(C)O3)c1C2=O (centres undefined)	–	–	–	0.00189 µM and 0.000224 µM	–	0.0014 µM and 0.000447 µM	–	–	–	0.000463	0.000234	0.000414 µM and 0.00222 µM	0.000175	0.00017	–	–	–	–	–	–
CC[C@@H]1C[C@H]2CC3c4[nH]c5ccc(O)cc5c4CCN(C2)C31	> 100	> 100	> 100	> 100 µM	–	–	> 100	> 100	> 100	–	–	–	–	–	–	–	–	–	–	–
CSCCOC(=O)C(=[N+]=[N-])c1ccc([N+](=O)[O-])cc1	> 100	> 100	> 100	> 100 µM	> 100	–	> 100	> 100	> 100	–	–	–	–	–	–	–	–	–	–	–
CCC[CH2][Sn]1([CH2]CCC)[O]C(=O)c2ccc(C)cc2[O]1	2.17	–	1.01	0.357 µM	1.98	2.7 µM	–	1.77	0.587	1	–	–	0.184	0.658	0.273	0.21	1.38	0.511	–	–
CNC(=O)c1cccc2c(Nc3ccc(NS(C)(=O)=O)cc3OC)c3cccc(C)c3nc12	0.413	6.37	0.0552	3.17 µM	–	1.9 µM	2.34	0.927	1.25	–	–	–	–	–	–	–	–	–	–	–
Cc1cc(Oc2ccc3nc(COc4ccc(CC5SC(=O)NC5=O)cc4)n(C)c3c2)cc(C)c1N (centres undefined)	> 100	> 69.7	88	> 71.3 µM	–	32.5 µM	> 87.8	> 100	–	49.9	24.2	> 79.2 µM	17.2	–	26.8	–	15.6	44.1	> 49.4	29.1
O=C(NCc1ccncc1)C12CC3CC(C1)CC(c1ccc(Cl)cc1)(C3)C2	25.8	28.1	27.1	30.1 µM	–	18.3 µM	25.2	27.3	–	12.6	10.6	26.4 µM	15	–	5.58	–	5.7	13.4	14.2	12.1
CCc1ccc2c(c1)N(CCO)C1=C(C(=O)OC1)C2c1cccc(Cl)c1 (centres undefined)	19	16.2	8.82	17.7 µM	–	7.56 µM	17.9	19	–	0.736	1.98	18.7 µM	0.684	–	0.482	–	0.357	2.03	0.371	0.605
OC1C2CCC1C1C3C=CC(C3)C21 (centres undefined)	> 100	> 100	> 100	> 100 µM	> 100	> 100 µM	> 100	–	> 100	–	–	–	–	–	–	–	–	–	–	–
COc1ccc(CNc2nc3cc(N)cc(N)c3nc2-c2ccccc2)cc1	41.4	29.1	51.3	27.4 µM	–	31.4 µM	34.5	34.3	–	15.1	6.52	30.7 µM	13.6	–	13.6	–	17.6	16.8	14.7	15.9
C=CN(C)S(C)(=O)=O	> 100	> 100	> 100	> 100 µM	–	> 100 µM	> 100	> 100	–	> 100	> 100	> 100 µM	> 100	–	> 100	–	> 100	> 100	> 100	> 100
CNC(=O)Oc1cc(C)c(/C=C/c2cncc(C(=O)NC)c2)c(C)c1	> 25	> 25	> 25	> 25 µM	–	> 25 µM	> 25	> 25	–	> 25	> 25	> 25 µM	15.9	–	> 21.2	–	> 22.1	> 25	> 25	> 25
CCS(=O)(=O)Nc1cccc(Nc2c3cccc(C)c3nc3c(C)cccc23)c1OC	10.4	59.8	–	> 91.5 µM	–	8.21 µM	> 100	9.84	–	0.485	2.54	25.1 µM	0.273	–	0.25	–	1.1	0.374	10.5	1.31
CSc1ncnc2c1ncn2C1OC(CO)C(O)OC1O (centres undefined)	43.5	18.9	11.7	15.4 µM	–	17.6 µM	> 100	41.3	–	–	–	48.5 µM	–	–	–	–	–	–	–	–
O=c1oc2ccc(-n3c(=O)c4ccccc4c4ccccc4c3=O)cc2c2ccccc12	> 100	> 100	> 100	> 100 µM	–	> 100 µM	> 100	> 100	–	–	–	> 100 µM	–	–	–	–	–	–	–	–
C=C(CN1CCN(c2cccc(C(F)(F)F)n2)CC1)c1ccc(C(=S)Nc2ccccc2N)cc1	> 100	> 100	5.66	17.6 µM	–	3.17 µM	> 100	> 100	–	4.29	4.4	> 100 µM	3.72	–	2.29	–	1.46	4.64	4.13	4.11
CCOC(=O)C(C)(C)C(O)C(C)C (centres undefined)	> 100	> 100	> 100	> 100 µM	–	> 100 µM	> 100	> 100	–	–	–	> 100 µM	–	–	–	–	–	–	–	–
